Source: PubChem BioAssay (NCI)
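Growth conditions: 96-well plates. Treatment: test compound, 48 hours, 5 concentrations. Analysis: linear interpolation between bracketing concentrations; unreached endpoints set to highest concentration. TGI: concentration producing complete growth inhibition.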

How the values were obtained:
Assay in all cases: inhibition of tumour cell growth, NCI panel, 48 h
786-0 renal = test system: 786-0 renal
A498 renal = test system: A498 renal
A549 NSCLC = test system: A549 NSCLC
ACHN renal = test system: ACHN renal
BT-549 breast = test system: BT-549 breast
CAKI-1 renal = test system: CAKI-1 renal
DU-145 prostate = test system: DU-145 prostate
EKVX NSCLC = test system: EKVX NSCLC
HCC-2998 colon = test system: HCC-2998 colon
HCT-116 colon = test system: HCT-116 colon
HCT-15 colon = test system: HCT-15 colon
HOP-62 NSCLC = test system: HOP-62 NSCLC
HOP-92 NSCLC = test system: HOP-92 NSCLC
HS 578T breast = test system: HS 578T breast
HT29 colon = test system: HT29 colon
IGROV1 ovarian = test system: IGROV1 ovarian
K-562 leukemia = test system: K-562 leukemia
KM12 colon = test system: KM12 colon
LOX IMVI melanoma = test system: LOX IMVI melanoma
M14 melanoma = test system: M14 melanoma
MALME-3M melanoma = test system: MALME-3M melanoma
MDA-MB-231 breast = test system: MDA-MB-231 breast
MDA-MB-435 = test system: MDA-MB-435
MDA-N = test system: MDA-N
MOLT-4 leukemia = test system: MOLT-4 leukemia
NCI-H226 lung = test system: NCI-H226 lung
NCI-H23 lung = test system: NCI-H23 lung
NCI-H460 lung = test system: NCI-H460 lung
NCI-H522 lung = test system: NCI-H522 lung
NCI/ADR-RES ovarian = test system: NCI/ADR-RES ovarian
OVCAR-3 ovarian = test system: OVCAR-3 ovarian
OVCAR-4 ovarian = test system: OVCAR-4 ovarian
OVCAR-5 ovarian = test system: OVCAR-5 ovarian
OVCAR-8 ovarian = test system: OVCAR-8 ovarian
PC-3 prostate = test system: PC-3 prostate
RXF 393 renal = test system: RXF 393 renal
SF-268 CNS = test system: SF-268 CNS
SF-295 CNS = test system: SF-295 CNS
SK-MEL-2 melanoma = test system: SK-MEL-2 melanoma
SK-MEL-28 melanoma = test system: SK-MEL-28 melanoma
SK-MEL-5 melanoma = test system: SK-MEL-5 melanoma
SN12C renal = test system: SN12C renal
SNB-19 CNS = test system: SNB-19 CNS
SR leukemia = test system: SR leukemia
SW-620 colon = test system: SW-620 colon
TK-10 renal = test system: TK-10 renal
U251 CNS = test system: U251 CNS
UACC-257 melanoma = test system: UACC-257 melanoma
UACC-62 melanoma = test system: UACC-62 melanoma
UO-31 renal = test system: UO-31 renal
CCRF-CEM leukemia = test system: CCRF-CEM leukemia
COLO 205 colon = test system: COLO 205 colon
HL-60(TB) leukemia = test system: HL-60(TB) leukemia
MCF7 breast = test system: MCF7 breast
RPMI-8226 leukemia = test system: RPMI-8226 leukemia
SK-OV-3 ovarian = test system: SK-OV-3 ovarian
SNB-75 CNS = test system: SNB-75 CNS
T-47D breast = test system: T-47D breast

Question: With `O=c1[nH]c(=S)c2[nH]c(=O)n(-c3ccccc3)c2[nH]1` as the compound, how does the TGI (786-0 renal) read?
Answer: > 100 µM

Question: And the TGI (A498 renal)?
Answer: > 100 µM

Question: And the TGI (A549 NSCLC)?
Answer: > 100 µM

Question: What about the TGI (ACHN renal) of the same compound?
Answer: > 100 µM

Question: What about the TGI (BT-549 breast) of the same compound?
Answer: > 100 µM

Question: What about the TGI (CAKI-1 renal) of the same compound?
Answer: > 100 µM

Question: What about the TGI (DU-145 prostate) of the same compound?
Answer: > 100 µM

Question: And the TGI (EKVX NSCLC)?
Answer: > 100 µM

Question: And the TGI (HCC-2998 colon)?
Answer: > 100 µM

Question: And the TGI (HCT-116 colon)?
Answer: > 100 µM

Question: What about the TGI (HCT-15 colon) of the same compound?
Answer: > 100 µM

Question: And the TGI (HOP-62 NSCLC)?
Answer: > 100 µM

Question: And the TGI (HOP-92 NSCLC)?
Answer: > 100 µM

Question: What about the TGI (HS 578T breast) of the same compound?
Answer: > 100 µM

Question: What about the TGI (HT29 colon) of the same compound?
Answer: > 100 µM

Question: And the TGI (IGROV1 ovarian)?
Answer: > 100 µM

Question: What about the TGI (K-562 leukemia) of the same compound?
Answer: > 100 µM

Question: And the TGI (KM12 colon)?
Answer: > 100 µM

Question: And the TGI (LOX IMVI melanoma)?
Answer: > 100 µM

Question: What about the TGI (M14 melanoma) of the same compound?
Answer: > 100 µM

Question: What about the TGI (MALME-3M melanoma) of the same compound?
Answer: > 100 µM

Question: And the TGI (MDA-MB-231 breast)?
Answer: > 100 µM

Question: And the TGI (MDA-MB-435)?
Answer: > 100 µM

Question: What about the TGI (MDA-N) of the same compound?
Answer: > 100 µM

Question: What about the TGI (MOLT-4 leukemia) of the same compound?
Answer: > 100 µM

Question: What about the TGI (NCI-H226 lung) of the same compound?
Answer: > 100 µM

Question: What about the TGI (NCI-H23 lung) of the same compound?
Answer: > 100 µM

Question: And the TGI (NCI-H460 lung)?
Answer: > 100 µM

Question: What about the TGI (NCI-H522 lung) of the same compound?
Answer: > 100 µM

Question: And the TGI (NCI/ADR-RES ovarian)?
Answer: > 100 µM

Question: What about the TGI (OVCAR-3 ovarian) of the same compound?
Answer: > 100 µM

Question: What about the TGI (OVCAR-4 ovarian) of the same compound?
Answer: > 100 µM

Question: And the TGI (OVCAR-5 ovarian)?
Answer: > 100 µM

Question: What about the TGI (OVCAR-8 ovarian) of the same compound?
Answer: > 100 µM

Question: What about the TGI (PC-3 prostate) of the same compound?
Answer: > 100 µM

Question: What about the TGI (RXF 393 renal) of the same compound?
Answer: > 100 µM

Question: And the TGI (SF-268 CNS)?
Answer: > 100 µM

Question: What about the TGI (SF-295 CNS) of the same compound?
Answer: > 100 µM

Question: What about the TGI (SK-MEL-2 melanoma) of the same compound?
Answer: > 100 µM

Question: What about the TGI (SK-MEL-28 melanoma) of the same compound?
Answer: > 100 µM

Question: And the TGI (SK-MEL-5 melanoma)?
Answer: > 100 µM

Question: And the TGI (SN12C renal)?
Answer: > 100 µM

Question: And the TGI (SNB-19 CNS)?
Answer: > 100 µM

Question: And the TGI (SR leukemia)?
Answer: > 100 µM

Question: And the TGI (SW-620 colon)?
Answer: > 100 µM

Question: And the TGI (TK-10 renal)?
Answer: > 100 µM

Question: And the TGI (U251 CNS)?
Answer: > 100 µM

Question: And the TGI (UACC-257 melanoma)?
Answer: > 100 µM

Question: And the TGI (UACC-62 melanoma)?
Answer: > 100 µM

Question: What about the TGI (UO-31 renal) of the same compound?
Answer: > 100 µM

Question: With `CC(=O)OC[C@]12CCC3[C@@]4(C)CCCC(C)(C)C4CC[C@@]3(C)C1CC(C1=CC(=O)OC1O)O2` (stereo partly drawn) as the compound, how does the TGI (786-0 renal) read?
Answer: 1.83 µM

Question: And the TGI (A549 NSCLC)?
Answer: 5.05 µM

Question: What about the TGI (CAKI-1 renal) of the same compound?
Answer: 3.11 µM

Question: And the TGI (CCRF-CEM leukemia)?
Answer: 0.982 µM

Question: What about the TGI (COLO 205 colon) of the same compound?
Answer: 5.67 µM

Question: And the TGI (EKVX NSCLC)?
Answer: 6.51 µM

Question: What about the TGI (HCC-2998 colon) of the same compound?
Answer: 2.83 µM

Question: And the TGI (HCT-15 colon)?
Answer: 1.98 µM

Question: And the TGI (HL-60(TB) leukemia)?
Answer: 2.66 µM

Question: What about the TGI (HOP-62 NSCLC) of the same compound?
Answer: 3.9 µM

Question: What about the TGI (IGROV1 ovarian) of the same compound?
Answer: 2.95 µM

Question: What about the TGI (K-562 leukemia) of the same compound?
Answer: 9.56 µM

Question: What about the TGI (KM12 colon) of the same compound?
Answer: 3.62 µM

Question: And the TGI (M14 melanoma)?
Answer: 3.07 µM

Question: And the TGI (MCF7 breast)?
Answer: 2.97 µM

Question: And the TGI (MDA-MB-231 breast)?
Answer: 3.12 µM

Question: And the TGI (MDA-N)?
Answer: 2.42 µM

Question: What about the TGI (MOLT-4 leukemia) of the same compound?
Answer: 0.633 µM

Question: And the TGI (NCI-H23 lung)?
Answer: 3.8 µM

Question: And the TGI (OVCAR-8 ovarian)?
Answer: 3.52 µM

Question: What about the TGI (PC-3 prostate) of the same compound?
Answer: 2.68 µM

Question: And the TGI (RPMI-8226 leukemia)?
Answer: 0.761 µM

Question: And the TGI (RXF 393 renal)?
Answer: 1.55 µM

Question: And the TGI (SF-268 CNS)?
Answer: 4.88 µM

Question: What about the TGI (SK-MEL-28 melanoma) of the same compound?
Answer: 2.19 µM

Question: What about the TGI (SK-MEL-5 melanoma) of the same compound?
Answer: 2.85 µM

Question: And the TGI (SK-OV-3 ovarian)?
Answer: 4.04 µM

Question: What about the TGI (SNB-75 CNS) of the same compound?
Answer: 3.91 µM

Question: And the TGI (SR leukemia)?
Answer: 0.868 µM

Question: What about the TGI (SW-620 colon) of the same compound?
Answer: 1.85 µM

Question: What about the TGI (T-47D breast) of the same compound?
Answer: 3.79 µM

Question: What about the TGI (TK-10 renal) of the same compound?
Answer: 3.2 µM

Question: And the TGI (UACC-62 melanoma)?
Answer: 3.65 µM
